For orientation: pKd means the Kd on a negative log10 scale, so that one unit is a factor of ten.

pKd: −log10 of the molar value.

Chain of Stromal cell-derived factor 1 (P48061 whole entry): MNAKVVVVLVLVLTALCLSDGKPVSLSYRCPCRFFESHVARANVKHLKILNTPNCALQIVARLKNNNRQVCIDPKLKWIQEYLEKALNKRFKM

One test concerns the target Stromal cell-derived factor 1 (Homo sapiens, UniProt P48061). The experiment in a line: Binding affinity to wild type CXCL12 (unknown origin) by NMR spectroscopy.
Settings: not given; call rule not given here
`O=C(O)CSc1nc(SCC(=O)O)nc(-c2c3ccccc3cc3ccccc23)n1`: the Kd result is recorded as “Not Active”.

Take `O=C(O)CSc1nc(SCC(=O)O)nc(C2=CCCCC2)n1`: the Kd entry is “Nd(Insoluble)”. Turning to `O=C(O)CSc1nc(SCC(=O)O)nc(-c2ccc(-c3ccccc3)cc2)n1`, the Kd entry was “Nd(Insoluble)”.

As for `O=C(O)c1ccc(Nc2nc(Nc3ccc(C(=O)O)cc3)nc(-c3ccccc3)n2)cc1`, the Kd entry is “Nd(Insoluble)”. With `O=C(O)CSc1nc(SCC(=O)O)nc(-c2ccc(Oc3ccccc3)cc2)n1`, the Kd entry was “Nd(Insoluble)”.

For the molecule `O=C(O)CSc1nc(SCC(=O)O)nc(-c2cnc3ccccc3c2)n1`, the Kd result is “Nd(Insoluble)”. Same read-out and setting: the entry for `O=C(O)CSc1nc(SCC(=O)O)nc(C2C3CC4CC(C3)CC2C4)n1` (stereo unspecified) is “Not Active”; for `O=C(O)CSc1nc(SCC(=O)O)nc(-c2ccoc2)n1` it is “Nd(Insoluble)”.

The same test, now with this note: read-out: Kd.
As to `C[N+]1(c2nc(SCC(=O)O)nc(SCC(=O)O)n2)CCOCC1`, the pKd was 2.52. On to `O=C(O)CSc1nc(SCC(=O)O)nc(-c2ccc(N3CCOCC3)cc2)n1`, for which the pKd is 3.51.

With `O=C(O)CSc1nc(SCC(=O)O)nc(N2CCOCC2)n1`, the negative logarithm of the Kd (pKd) was 3.63.
